From article PMC11195807, “Development of a multi-targeted chemotherapeutic approach based on G-quadruplex stabilisation and carbonic anhydrase inhibition” (Journal of Enzyme Inhibition and Medicinal Chemistry, 2024)
Read-outs that look alike come from different tables or passages of the source.

Columns and labels:
c-Kit1 = experiment: CD melting experiments, c-Kit1 GQ; assay type: binding; settings: for ΔT1/2 c-Kit1: 2 molar equiv compound, T1/2 of DNA alone 55.0 °C; for ΔΔT1/2 c-Kit1: ΔT1/2 of compound minus ΔT1/2 of berberine, 2 molar equiv
hCA I = biological target: T1, hCA I (Homo sapiens, UniProt P00915); experiment: stopped-flow CO2 hydrase assay, hCA I; assay type: biochemical
T1 construct: made in house
T1 sequence (P00915 whole entry): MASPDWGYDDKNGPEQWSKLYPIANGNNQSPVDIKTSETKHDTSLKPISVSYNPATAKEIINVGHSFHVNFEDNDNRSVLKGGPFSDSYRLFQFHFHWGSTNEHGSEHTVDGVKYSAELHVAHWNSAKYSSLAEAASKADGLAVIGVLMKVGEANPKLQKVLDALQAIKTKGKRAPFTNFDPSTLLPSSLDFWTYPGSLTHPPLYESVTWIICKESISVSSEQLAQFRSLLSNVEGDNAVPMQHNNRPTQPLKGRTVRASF
Procedure: (§1) An Applied Photophysics stopped-flow instrument has been used for assaying the CA-catalysed CO2 hydration activity, as reported earlier. The enzyme concentrations were in the range 5–12 nM. All hCA isoforms were recombinant proteins, being obtained in-house as reported earlier.

hCA II = biological target: T2, hCA II (Homo sapiens, UniProt P00918); experiment: stopped-flow CO2 hydrase assay, hCA II; assay type: biochemical
T2 construct: made in house
From the text: . The structure-activity relationship is discussed separately for the two compound subsets. Another code pattern is included for the MTDLs in Table 1, which indicates the derivative CAI type (sulphonamide, S or coumarin, C) and the number of atoms in the spacers connecting either berberine and the triazole (carbon atoms) or the triazole and the benzenesulfonamide/coumarin scaffolds (carbon or oxygen atoms).
as §1

hCA XII = biological target: T3, hCA XII (Homo sapiens, UniProt O43570); experiment: stopped-flow CO2 hydrase assay, hCA XII; assay type: biochemical; settings: for Selectivity index (SI) I/XII: hCA XII over hCA I; for Selectivity index (SI) II/XII: hCA XII over hCA II; for Ki: mean ± SEM of three assays
T3 construct: made in house
T3 sequence (O43570 25-354): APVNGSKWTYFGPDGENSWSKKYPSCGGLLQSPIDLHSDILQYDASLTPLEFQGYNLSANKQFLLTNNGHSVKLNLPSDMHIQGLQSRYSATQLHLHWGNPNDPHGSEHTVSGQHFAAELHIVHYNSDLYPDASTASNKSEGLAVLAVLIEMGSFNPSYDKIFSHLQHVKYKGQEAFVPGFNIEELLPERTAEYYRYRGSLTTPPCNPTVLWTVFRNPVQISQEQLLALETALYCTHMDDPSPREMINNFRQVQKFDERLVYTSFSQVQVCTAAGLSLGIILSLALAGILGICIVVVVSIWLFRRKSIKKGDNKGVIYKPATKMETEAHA
From the text: An Applied Photophysics stopped-flow instrument has been used for assaying the CA-catalysed CO2 hydration activity, as reported earlier. […] All hCA isoforms were recombinant proteins, being obtained in-house as reported earlier.

HeLa cells = experiment: MTT assay, HeLa cells in normoxia; assay type: cell-based; settings: for IC50: Homo sapiens
From the text: Combining the results on carbonic anhydrase inhibition and GQ thermal stabilisation, we selected the sulphonamides S-2,0, S-4,0, S-5,0 and the coumarins C-3,2, C-4,2, C-5,2 as the most promising MTDLs to be further investigated, since able to both efficiently suppress the activity of the hCAs IX/XII and stabilise GQ structures, in vitro. Moreover, given that crystals suitable for X-ray diffraction analyses had been successfully obtained for the human telomeric DNA GQ in complex with S-3,2, we also included such sulphonamide derivative in the subsequent studies. Thus, we assessed the cytotoxicity of the selected MTDLs on CA IX-positive HeLa cells, using the MTT assay.
HeLa cells were grown in Dulbecco’s Modified Eagle’s Medium supplemented with 10% FBS, 100 U/mL penicillin, and 100 μg/mL streptomycin, at 37 °C, in a 5% CO2/95% air atmosphere. Cells were sub-cultured at 90% confluence, in the split ratio 1:8, every 3–5 days. The MTDLs used in this study, as well as the CAIs S and C, were dissolved in DMSO at 40 mM (for the sulphonamides) or 10 mM (for the coumarins) concentration. As for berberine, a 50 mM stock solution in DMSO was prepared. Each tested compound was diluted in cell culture medium to the required concentration, immediately prior to use. As regards the experiments under hypoxic conditions, an 80 mM stock solution of CoCl2 was prepared in sterile distilled water and further diluted in medium to obtain the final desired concentrations.
For the MTT experiments in the presence of normal oxygen levels, HeLa cells were seeded in 96-well plates at a density of 15,000 cells per well (culture medium volume – 100 μL/well) and incubated at 37 °C, for 24 h. The medium was then removed, and HeLa were incubated, for 48 h, with fresh medium containing increasing concentrations of MTDLs, single-target-directed agents (berberine, S, and C) or vehicle (0.5% DMSO). The MTDL C-4,2 was also tested for 12 h. As for the co-treatments, cells were co-treated for 12 h with equimolar concentrations of berberine and C. As regards the MTT experiments under hypoxic conditions, HeLa cells were seeded in 96-well plates (8,000 cells per well) and incubated overnight, pre-treated with 50 μM cobalt (II) chloride hexahydrate (CoCl2) and then, for the following 12 h, either exposed to increasing concentrations of C-4,2 or vehicle (0.5% DMSO), or co-treated with equimolar concentrations of berberine and C. Each condition was assayed in triplicate. At the end of the treatments, 10 µL of MTT reagent were added to each well, at a final concentration of 0.5 mg/mL, and the plates were incubated at 37 °C for 4 h. To dissolve the resulting purple formazan crystals, 100 μL of the solubilisation solution were added into each well and the plates were allowed to stand overnight in the incubator (37 °C, 5% CO2/95% air). Finally, the optical density of the samples (at 570 nm) was measured on an ELx800 Absorbance Microplate Reader (BioTek Instruments, Inc., Winooski, VT, USA). The percentage (%) of cell survival for each condition was calculated by using the following equation: % cell survival=OD− OD0/ODCONTROL− OD0×100 where OD is the optical density of the sample, OD0 is the optical density of the background signal, and ODCONTROL is the optical density of the control sample (cells treated with vehicle, 0.5% DMSO). The concentration able to reduce by 50% the cellular viability (IC50) was calculated, for each investigated compound, using Prism 8.0.2 (GraphPad, San Diego, CA, USA) and plotting the percentage of cell survival versus the compound concentration (µM).

c-Myc = experiment: CD melting experiments, c-Myc GQ; assay type: binding; settings: for ΔΔT1/2 c-Myc: ΔT1/2 of compound minus ΔT1/2 of berberine, 1 molar equiv; for ΔT1/2 c-Myc: 1 molar equiv compound, T1/2 of DNA alone 70.0 °C
Hairpin = experiment: CD melting experiments, hairpin DNA duplex; settings: 2 molar equiv compound, T1/2 of DNA alone 66.0 °C
[1] = sulphonamides, inhibitor-enzyme incubation 15 min, mean ± SEM of three assays
[2] = sulphonamides, inhibitor-enzyme incubation 15 min
[3] = 48 h, normoxia, read-out: IC50 (50% of cell viability reduction), MTT assay
[4] = coumarins, inhibitor-enzyme incubation 6 h

Row | Structure (SMILES) | Ki (hCA I; [1]) | Ki (hCA II; [1]) | Selectivity index (SI) I/XII (hCA XII) | Selectivity index (SI) II/XII (hCA XII) | Ki (hCA XII; [2]) | IC50 (HeLa cells; [3]) | Ki (hCA I; [4]) | Ki (hCA II; [4]) | Ki (hCA XII; [4]) | ΔT1/2 c-Kit1 (c-Kit1) | ΔΔT1/2 c-Kit1 (c-Kit1) | IC50 (50% of cell viability reduction), MTT assay (HeLa cells; 48 h, normoxia) | ΔΔT1/2 c-Myc (c-Myc) | ΔT1/2 Hairpin (Hairpin) | ΔT1/2 c-Myc (c-Myc) | other results
1 | COc1ccc2cc3[n+](cc2c1OCCn1cc(-c2ccc(S(N)(=O)=O)cc2)nn1)CCc1cc2c(cc1-3)OCO2 [Compound 26, 10-Methoxy-9–(2-(4–(4-sulfamoylphenyl)-1H-1,2,3-triazol-1-yl)ethoxy)-5,6-dihydro-[1,3]dioxolo[4,5-g]isoquinolino[3,2-a]isoquinolin-7-ium hexafluorophosphate] | 581 ± 32.5 nM | 59.4 ± 3.8 nM | 79.5 | 8.1 | 7.3 ± 0.5 nM | > 200 µM |  |  |  | 22.0 °C | 9.0 °C | fell outside the explored range of concentrations | >13.0 °C | -0.5 °C |  | ΔΔT1/2 c-Kit1 (c-Kit1; listed as S-2,0): ≥ 6.0 °C; ΔΔT1/2 c-Myc (c-Myc; listed as S-2,0): > 13.0 °C
2 | COc1ccc2cc3[n+](cc2c1OCCCn1cc(COc2ccc(S(N)(=O)=O)cc2)nn1)CCc1cc2c(cc1-3)OCO2 [Compound 29, 10-Methoxy-9–(3-(4-((4-sulfamoylphenoxy)methyl)-1H-1,2,3-triazol-1-yl)propoxy)-5,6-dihydro-[1,3]dioxolo[4,5-g]isoquinolino[3,2-a]isoquinolin-7-ium hexafluorophosphate] | 805 ± 60.8 nM | 62.3 ± 4.7 nM | 25.8 | 2.0 | 31.2 ± 2.5 nM | > 200 µM |  |  |  | 16.0 °C | 3.0 °C | fell outside the explored range of concentrations | 4.5 °C | -0.5 °C | 16.5 °C | 
3 | COc1ccc2cc3[n+](cc2c1OCCCCn1cc(-c2ccc(S(N)(=O)=O)cc2)nn1)CCc1cc2c(cc1-3)OCO2 [Compound 30, 10-Methoxy-9–(4–(4-(4-sulfamoylphenyl)-1H-1,2,3-triazol-1-yl)butoxy)-5,6-dihydro-[1,3]dioxolo[4,5-g]isoquinolino[3,2-a]isoquinolin-7-ium hexafluorophosphate] | 592 ± 36.3 nM | 55.1 ± 3.8 nM | 23.2 | 2.2 | 25.5 ± 1.4 nM | 35 µM |  |  |  | 20.5 °C | 7.5 °C |  | >13.0 °C | -1.0 °C |  | ΔΔT1/2 c-Kit1 (c-Kit1; listed as S-4,0): ≥ 6.0 °C; ΔΔT1/2 c-Myc (c-Myc; listed as S-4,0): > 13.0 °C
4 | COc1ccc2cc3[n+](cc2c1OCCCCn1cc(COc2ccc4ccc(=O)oc4c2)nn1)CCc1cc2c(cc1-3)OCO2 [Compound 37, 10-Methoxy-9–(4-(4-(((2-oxo-2H-chromen-7-yl)oxy)methyl)-1H-1,2,3-triazol-1-yl)butoxy)-5,6-dihydro-[1,3]dioxolo[4,5-g]isoquinolino[3,2-a]isoquinolin-7-ium hexafluorophosphate] |  |  | > 1190 | > 1190 |  | 40 µM | > 100000 nM | > 100000 nM | 8.4 ± 0.5 nM | 17.5 °C | 4.5 °C |  | 1.0 °C | +0.5 °C | 13.0 °C | cytotoxicity compared with co-exposure to equimolar berberine and C (HeLa cells; 12 h, normoxia): greater; IC50 (HeLa cells; 12 h treatment, normoxia, read-out: IC50, MTT assay): 46 µM

The next lines start with results.

Row | Ki (hCA I; [1]) | Ki (hCA II; [1]) | Selectivity index (SI) I/XII (hCA XII) | Selectivity index (SI) II/XII (hCA XII) | Ki (hCA XII; [2]) | IC50 (HeLa cells; [3]) | Ki (hCA I; [4]) | Ki (hCA II; [4]) | Ki (hCA XII; [4]) | Structure (SMILES) | ΔT1/2 c-Kit1 (c-Kit1) | ΔΔT1/2 c-Kit1 (c-Kit1) | IC50 (50% of cell viability reduction), MTT assay (HeLa cells; 48 h, normoxia) | ΔΔT1/2 c-Myc (c-Myc) | ΔT1/2 Hairpin (Hairpin) | ΔT1/2 c-Myc (c-Myc) | other results
5 | 574 ± 35.8 nM | 15.8 ± 1.2 nM | 31.3 | 0.9 | 18.3 ± 1 nM | > 200 µM |  |  |  | COc1ccc2cc3[n+](cc2c1OCCCCCn1cc(-c2ccc(S(N)(=O)=O)cc2)nn1)CCc1cc2c(cc1-3)OCO2 [Compound 32, 10-Methoxy-9-((5–(4-(4-sulfamoylphenyl)-1H-1,2,3-triazol-1-yl)pentyl)oxy)-5,6-dihydro-[1,3]dioxolo[4,5-g]isoquinolino[3,2-a]isoquinolin-7-ium hexafluorophosphate] | 19.0 °C | 6.0 °C | fell outside the explored range of concentrations | 1.0 °C | -1.0 °C | 13.0 °C | ΔΔT1/2 c-Kit1 (c-Kit1; listed as S-5,0): ≥ 6.0 °C; reduction in the percentage of cell survival (HeLa cells; 48 h, concentration up to 200 µM): around 40%
6 |  |  | > 332.2 | > 332.2 |  | > 50 µM | > 100000 nM | > 100000 nM | 30.1 ± 1.5 nM | COc1ccc2cc3[n+](cc2c1OCCCn1cc(COc2ccc4ccc(=O)oc4c2)nn1)CCc1cc2c(cc1-3)OCO2 [Compound 34, 10-Methoxy-9–(3-(4-(((2-oxo-2H-chromen-7-yl)oxy)methyl)-1H-1,2,3-triazol-1-yl)propoxy)-5,6-dihydro-[1,3]dioxolo[4,5-g]isoquinolino[3,2-a]isoquinolin-7-ium hexafluorophosphate] | 20.0 °C | 7.0 °C | fell outside the explored range of concentrations | 6.0 °C | +1.0 °C | 18.0 °C | 
7 |  |  | > 497.5 | > 497.5 |  | 37.5 µM | > 100000 nM | > 100000 nM | 20.1 ± 1.3 nM | COc1ccc2cc3[n+](cc2c1OCCCCCn1cc(COc2ccc4ccc(=O)oc4c2)nn1)CCc1cc2c(cc1-3)OCO2 [Compound 39, 10-Methoxy-9-((5–(4-(((2-oxo-2H-chromen-7-yl)oxy)methyl)-1H-1,2,3-triazol-1-yl)pentyl)oxy)-5,6-dihydro-[1,3]dioxolo[4,5-g]isoquinolino[3,2-a]isoquinolin-7-ium hexafluorophosphate] | 20.0 °C | 7.0 °C |  | >13.0 °C | -1.0 °C |  | ΔΔT1/2 c-Myc (c-Myc; listed as C-5,2): > 13.0 °C
